According to patent publication US20220267268A1, “NEW TRICYCLIC 5-HT2 ANTAGONISTS” (Anamar AB, priority 2019, published 2022):
Where a name gives a salt, the structure may show the parent alone. Marks after values point to notes of the source that are not given here.

Columns and labels:
[1] = molecular target: T1, 5-HT2B receptor (Homo sapiens, UniProt P41595); experiment: 5-HT2B receptor binding, ligand displacement assay with 3H-LSD radioligand; conditions: human receptor in CHO-K1; for inhibition at 0.01 µM: 10 nM compound; for inhibition at 0.1 µM: 100 nM compound; for inhibition at 0.001 µM: 1 nM compound
T1 construct: host or cells: CHO-K1
Method: 5-HT2B receptor binding (performed at Eurofins Panlabs Taiwan, Ltd.) to human receptor protein expressed in CHO-K1 cells was determined in a ligand displacement assay using ^3H-lysergic acid diethylamide (LSD) as radioligand and ketanserine as a standard reference compound, or alternatively*, with ^3H-mesulergine and SB 206553 as reference. Data is presented as % displacement of radioligand at indicated compound concentrations, see Table 1.

[2] = molecular target: T1, 5-HT2B receptor; experiment: 5-HT2B receptor antagonism, inhibition of 5-HT stimulated IP-1 accumulation (HTRF) in CHO-K1 cells; assay type: cell-based; conditions: 5-HT (5 nM) stimulated IP-1 accumulation; for inhibition at 0.001 µM: 1 nM compound; for inhibition at 0.01 µM: 10 nM compound; for inhibition at 0.1 µM: 100 nM compound; for inhibition at 1 µM: 1000 nM compound
Method: (§1) 5-HT2B receptor antagonism (performed at Eurofins Panlabs Taiwan, Ltd.) was determined in CHO-K1 cells expressing human receptor protein as inhibition of 5-HT (5 nM) stimulated IP-1 accumulation measured by HTRF quantitation. SB 206553 was used as a standard reference compound. The antagonistic response is expressed as % inhibition of the 5-HT induced effect, see Table 2.

[3] = molecular target: T1, 5-HT2B receptor; experiment: 5-HT2B receptor agonism, IP-1 accumulation in CHO-K1 cells without prior 5-HT stimulation; assay type: cell-based; conditions: % of IP-1 accumulation induced by 5-HT (1 uM); for 5-HT2B receptor agonism (% of positive control) 1 nM: 1 nM compound; for 5-HT2B receptor agonism (% of positive control) 10 nM: 10 nM compound; for 5-HT2B receptor agonism (% of positive control) 100 nM: 100 nM compound; for 5-HT2B receptor agonism (% of positive control) 1000 nM: 1000 nM compound
Method: as §1
5-HT2B receptor agonism (performed at Eurofins Panlabs Taiwan, Ltd.) was determined in the same model as described above in Example 50 without prior stimulation with 5-HT. The agonistic response is expressed as % of the IP-1 accumulation induced by 5-HT (1 uM) stimulation, see Table 3.

[4] = system: bleomycin-induced dermal fibrosis; experiment: Anti-fibrotic effects in bleomycin-induced dermal fibrosis in mice; assay type: in vivo, female DBA/2 mice
Method: Skin fibrosis was induced in female DBA/2 mice by subcutaneous injections of bleomycin (2.5 mg/kg) every other day for three or six weeks.
For preventive treatment, mice were challenged with bleomycin for three weeks and treatment by oral gavage was established simultaneously. For therapeutic treatment, fibrosis was first induced by injections of bleomycin for three weeks in the absence of treatment. Thereafter, treatment by oral gavage was initiated, while injections of bleomycin were continued. The outcome was analyzed three or six weeks after the first injection of bleomycin for preventive and therapeutic treatment, respectively. Mice injected with 0.9% NaCl, the vehicle of bleomycin, served as non-fibrotic controls and mice treated with ddH2O (the vehicle for test compound) by oral gavage served as negative controls.
Groups 1-8 of n=8 Female DBA/2 Mice: Preventive dosing 3 weeks in total 1. 0.9% NaCl (injection) and ddH2O (orally) week 1-3. 2. Bleomycin (injection) and ddH2O (orally) week 1-3. 3. Bleomycin (injection) and test compound (10 mg/kg, qd, orally) week 1-3. Therapeutic dosing 6 weeks in total 4. 0.9% NaCl (injection) week 1-6 and ddH2O (orally) week 4-6. 5. Bleomycin (injection) week 1-3, 0.9% NaCl (injection) week 4-6, and ddH2O (orally) week 4-6. 6. Bleomycin (injection) week 1-6 and ddH2O (orally) week 4-6. 7. Bleomycin (injection) week 1-6 and test compound (1 mg/kg, qd, orally) week 4-6. 8. Bleomycin (injection) week 1-6 and test compound (10 mg/kg, qd, orally) week 4-6.
Defined areas of the skin of the upper back were excised, subsequently fixed in 4% formalin for 6 h and embedded in paraffin. Skin sections were cut and stained with hematoxylin/eosin. The dermal thickness (measured as distance between the epidermal-dermal border to the dermal-subcutaneous border in arbitrary units) was quantified in 4 different sections from different sites with 2 measurements per section. The analysis was performed in a blinded manner.
Myofibroblasts are characterized by the expression of α-smooth muscle actin (αSMA). Fibroblasts positive for αSMA were detected in paraffin-embedded slides from the upper back by incubation with monoclonal anti-αSMA antibodies (clone 1A4, Sigma-Aldrich, Steinheim, Germany). The expression was visualized with horseradish peroxidase labeled secondary antibodies and 3,3-diaminobenzidine tetrahydrochloride (DAB) (Sigma-Aldrich). Monoclonal mouse IgG antibodies (Calbiochem, San Diego, Calif., USA) were used for controls. The analysis was performed by a blinded reviewer evaluating the myofibroblasts in four sections per sample.
The amount of collagen protein (ug/mL) in skin samples was determined via hydroxyproline assay. After digestion of full skin thickness punch biopsies (Ø 3 mm) derived from the upper back in 6 M HCl for three hours at 120° C., the pH of the samples was adjusted to 6 with 6 M NaOH. Afterwards, 0.06 M chloramine T was added to each sample and incubated for 20 m at room temperature. Next, 3.15 M perchloric acid and 20% p-dimethylaminobenzaldehyde were added and samples were incubated for additional 20 min at 60° C. The absorbance was determined at 557 nm with a Spectra MAX 190 microplate spectrophotometer using a standard curve generated with purified type I collagen (Sigma-Aldrich).
All data are presented as group mean values (±SEM), and differences between the groups were tested for their statistical significance by Mann-Whitney U non-parametric test for non-related samples. P-values less than 0.05 were considered significant.

[5] = Preventive dosing, Group 3: 10 mg/kg qd orally week 1-3, mean (SEM), p < 0.001 vs group 2
[6] = Therapeutic dosing, Group 7: 1 mg/kg qd orally week 4-6, mean (SEM)
[7] = Therapeutic dosing, Group 8: 10 mg/kg qd orally week 4-6, mean (SEM)
[8] = preventive and therapeutic treatment, compared to vehicle-treated, bleomycin-challenged mice

T1 sequence (P41595 whole entry): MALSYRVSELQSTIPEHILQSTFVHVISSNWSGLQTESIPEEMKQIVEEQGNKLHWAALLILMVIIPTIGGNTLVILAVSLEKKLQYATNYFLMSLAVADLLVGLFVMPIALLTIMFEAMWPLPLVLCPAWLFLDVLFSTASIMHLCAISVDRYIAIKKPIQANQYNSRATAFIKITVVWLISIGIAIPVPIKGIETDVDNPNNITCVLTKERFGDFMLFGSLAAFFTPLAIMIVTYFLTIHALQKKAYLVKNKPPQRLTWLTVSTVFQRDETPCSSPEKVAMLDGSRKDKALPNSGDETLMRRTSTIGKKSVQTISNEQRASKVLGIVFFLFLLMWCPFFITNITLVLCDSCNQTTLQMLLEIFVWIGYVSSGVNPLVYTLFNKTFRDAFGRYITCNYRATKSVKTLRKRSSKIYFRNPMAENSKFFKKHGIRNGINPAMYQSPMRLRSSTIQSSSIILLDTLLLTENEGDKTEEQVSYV

| Compound | inhibition at 0.01 µM [1] [%] | inhibition at 0.1 µM [1] [%] | inhibition at 0.001 µM [2] [%] | inhibition at 0.01 µM [2] [%] | inhibition at 0.1 µM [2] [%] | 5-HT2B receptor agonism (% of positive control) 1 nM [3] [%] | 5-HT2B receptor agonism (% of positive control) 10 nM [3] [%] | 5-HT2B receptor agonism (% of positive control) 100 nM [3] [%] | inhibition at 0.001 µM [1] [%] | inhibition at 1 µM [2] [%] | 5-HT2B receptor agonism (% of positive control) 1000 nM [3] [%] | other results |
| --- | --- | --- | --- | --- | --- | --- | --- | --- | --- | --- | --- | --- |
| CC1CN(C(=N)N)c2ccc3ccccc3c21.Cl (stereo not drawn) [Example 3, 1-Methyl-1,2-dihydro-3H-benzo[e]indole-3-carboximidamide hydrochloride] | 63 | 90 | 2 | 50 | 100 | −3 | 0 | −3 |  |  |  | Dermal thickness (arbitrary units) [4, 5]: 3.52 (0.05) *** arbitrary units; Hydroxyproline (ug/mL) [4, 5]: 3.44 (0.11) *** ug/mL; Myofibroblast counts [4, 5]: 1.31 (0.06) ***; Dermal thickness (arbitrary units) [4, 6]: 3.96 (0.06) ^++### arbitrary units; Hydroxyproline (ug/mL) [4, 6]: 3.85 (0.12) ^## ug/mL; Myofibroblast counts [4, 6]: 1.72 (0.07) ^+###; Dermal thickness (arbitrary units) [4, 7]: 3.56 (0.04) ^+++### arbitrary units; Hydroxyproline (ug/mL) [4, 7]: 3.58 (0.09) ^++### ug/mL; Myofibroblast counts [4, 7]: 1.41 (0.07) ^++###; Myofibroblast counts [4, 8]: significantly reduced; hydroxyproline content [4, 8]: significantly reduced; hypodermal thickening [4, 8]: significantly reduced; antifibrotic effect, 10 mg/kg/qd compared to 1 mg/kg/qd ([4]; therapeutic regimen): more potent antifibrotic effect |
| CC1CN(C(=N)N)c2ccc3c(Cl)cccc3c21.Cl (stereo not drawn) [Example 11, 6-Chloro-1-methyl-1,2-dihydro-3H-benzo[e]indole-3-carboximidamide hydrochloride] | 97 | 103 | 53 | 89 | 99 | 1 | 5 | −2 | 63 | 96 | 1 |  |
| CC1CN(C(=N)N)c2ccc3cc(F)ccc3c21.Cl (stereo not drawn) [Example 1, 7-Fluoro-1-methyl-1,2-dihydro-3H-benzo[e]indole-3-carboximidamide hydrochloride] | 49 | 88 | 2 | 14 | 80 | −1 | 2 | 7 | 9 | 97 | 0 |  |
| CC1CN(C(=N)N)c2ccc3c(F)cccc3c21 (stereo not drawn) [Example 33, 6-Fluoro-1-methyl-1,2-dihydro-3H-benzo[e]indole-3-carboximidamide 2,2,2-trifluoroacetic acid salt] | 82 | 101 | 29 | 81 | 99 | −1 | 4 | 26 | 28 | 100 | −1 |  |
